Assay results from ChEMBL document CHEMBL1201862, “PubChem BioAssay data set” (2004).
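Dose response: 5 concentrations. Exposure: 48 h. Format: 96-well plates. Endpoint: linear interpolation; highest concentration if not reached. Abbreviation: GI50, concentration required for 50% inhibition of growth.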 The source made the active and inactive calls. Rule as the data show it: active = GI50 up to about 1.1 µM and inactive = higher.

How the values were obtained:
Test in all cases: NCI-60 cell line screen, 48 h
[1] = test system: UACC-62
[2] = test system: SK-MEL-2
[3] = test system: HOP-62
[4] = test system: NCI-H522
[5] = test system: K562
[6] = test system: RXF 393
[7] = test system: SF-268
[8] = test system: SN12C
[9] = test system: BT-549
[10] = test system: A549
[11] = test system: HT-29
[12] = test system: OVCAR-8
[13] = test system: DU-145
[14] = test system: UACC-257
[15] = test system: TK-10
[16] = test system: CCRF-CEM
[17] = test system: KM12
[18] = test system: NCI-H460
[19] = test system: MOLT-4
[20] = test system: U-251
[21] = test system: OVCAR-4
[22] = test system: M14
[23] = test system: UO-31
[24] = test system: SK-OV-3
[25] = test system: MCF7
[26] = test system: MDA-MB-231
[27] = test system: ACHN
[28] = test system: SNB-75
[29] = test system: A498
[30] = test system: HCT-15
[31] = test system: T47D
[32] = test system: HOP-92
[33] = test system: SK-MEL-5
[34] = test system: NCI-H226
[35] = test system: CAKI-1
[36] = test system: Malme-3M
[37] = test system: Hs-578T
[38] = test system: SR
[39] = test system: NCI-H23
[40] = test system: NCI/ADR-RES
[41] = test system: EKVX
[42] = test system: RPMI-8226
[43] = test system: SF-539
[44] = test system: HL-60
[45] = test system: IGROV-1
[46] = test system: MDA-MB-435
[47] = test system: SNB-19
[48] = test system: SW-620
[49] = test system: SK-MEL-28
[50] = test system: 786-0
[51] = test system: SF-295
[52] = test system: LOX IMVI
[53] = test system: HCC 2998
[54] = test system: OVCAR-3
[55] = test system: OVCAR-5
[56] = test system: PC-3
[57] = test system: HCT-116
[58] = test system: COLO 205

Measured: GI50

COC1=C(OC)C(=O)C(Sc2ccc3ccccc3c2)=CC1=O
inactive: [1] 7.64 µM | [2] 13.6 µM | [3] 13.2 µM | [4] 1.82 µM | [5] 2.99 µM | [6] 6.85 µM | [7] 9.86 µM | [8] 7.87 µM | [9] 9.2 µM | [10] 12 µM | [11] 14.7 µM | [12] 10.4 µM | [13] 14.5 µM | [14] 7.69 µM | [15] 12.2 µM | [16] 1.29 µM | [17] 5.86 µM | [18] 7.67 µM | [19] 1.68 µM | [20] 4.89 µM | [21] 3.67 µM | [22] 4.35 µM | [23] 6.11 µM | [24] 16.1 µM | [25] 4.25 µM | [26] 11.4 µM | [27] 8.28 µM | [28] 12.8 µM | [29] 14.7 µM | [31] 5.58 µM | [32] 19 µM | [33] 3.1 µM | [34] 6.03 µM | [35] 14.7 µM | [36] 11.9 µM | [37] 14.9 µM | [38] 2.09 µM | [39] 11.2 µM | [40] 14.7 µM | [41] 11.9 µM | [43] 13.5 µM | [45] 12.4 µM | [46] 4.25 µM | [47] 14.1 µM | [48] 3.5 µM | [49] 16.3 µM | [50] 3.72 µM | [51] 9.42 µM | [52] 3.54 µM | [53] 11.6 µM | [54] 4.63 µM | [55] 15.6 µM | [56] 10 µM | [57] 4.58 µM | [58] 7.24 µM
9.68 µM: [30]
active: [42] 0.678 µM | [44] 0.716 µM

Fc1ccc(C(OCCN2CC3CC2CN3)c2ccc(F)cc2)cc1 (stereo unspecified)
60.5 µM: [30]
inactive: [1] 19.5 µM | [2] 19.1 µM | [3] > 100 µM | [4] 47.3 µM | [5] 36 µM | [6] 27.4 µM | [7] > 100 µM | [9] > 100 µM | [12] > 100 µM | [13] > 100 µM | [14] 18.3 µM | [15] 32.8 µM | [16] 35.3 µM | [17] 39.6 µM | [18] 38.9 µM | [19] 43.1 µM | [20] 48.5 µM | [21] > 100 µM | [24] > 100 µM | [25] 33.7 µM | [26] 46.8 µM | [27] > 100 µM | [28] 66.4 µM | [29] 44.9 µM | [31] 35.2 µM | [32] 69.2 µM | [33] 16.4 µM | [34] 59 µM | [35] > 100 µM | [36] 16.7 µM | [37] 57.3 µM | [38] 27.5 µM | [39] > 100 µM | [40] 97.9 µM | [42] 26.1 µM | [43] 29.6 µM | [44] 20.5 µM | [45] 53.3 µM | [46] 23.1 µM | [48] > 100 µM | [49] 21.8 µM | [51] 83.2 µM | [52] 50.9 µM | [53] 16.4 µM | [54] > 100 µM | [56] 59.2 µM | [58] 18.2 µM
